Tested on: existing P. aeruginosa PAO1 biofilm
Assay: Biofilm reduction in MBEC plate (crystal violet)
Type: cell-based, Pseudomonas aeruginosa
Settings: at 10 and 5 μM; 2 μg/mL PMBN; 48 hour biofilm
Procedure: P. aeruginosa PAO1 (5×10^5 cfu/mL) was grown in an MBEC plate for 24 hours. At 24 hours, the pegs were moved to a new 96-well plate containing fresh MHII media and either scrambled, RpsJ, or AcpP PPMO at the indicated concentrations. All wells containing PPMOs (including Scrambled) contained 2 μg/mL of PMBN. The pegs were again moved to new plates with or without PPMOs at 32 and 40 hours. Pegs were processed for crystal violet or visualized with microscopy at 48 hours. […] FIGS. 7B-7D: Spinning Disk confocal microscopy images of 48 hour biofilm treated with (FIG. 7B) 10 μM Scr PPMO #42, (FIG. 7C) 2.5 μM AcpP PPMO #35, (FIG. 7D) 10 μM AcpP PPMO #35. Green channel is PAO1 GFP; Red channel is biofilm stained with 200 μg/mL of Concanavalin A, Alexafluor 647 conjugate.
Pseudomonas aeruginosa Biofilm Reduction in MBEC Plate Protocol
• 1. 10 mL of MH is inoculated with a single colony and incubated at 37° C. and ˜250 rpm for about 5 hours. • 2. The sample is centrifuged for 10 minutes at ˜4000 rpm at 4° C., the supernatant decanted and the pellet resuspended in 10 mL of 150 mM NaCl or PBS. This step is repeated to wash the pellet 3 times. • 3. […] The OD600 of the sample is taken and cfu/mL is calculated. […]
1. […] The final OD570 of the 10× dilution of solution should be approximately 0.500 absorbance. […]
2. OD reading: The OD570 for the 96-well plate from step 1e is determined. […]

For “PPMO #14: RpsJ PMO GCATTTGACCT, 5′ TEG, 3′ (RXR)4XB CPP”, the “reduction of existing biofilm (crystal violet)” value was “statistically significant reduction of biofilm”.
